ChEMBL document CHEMBL1150728, “Antimalarial agents, 4. Synthesis of a brusatol analog and biological activity of brusatol-related compounds” (1987)
In brackets after ≈: the same amount, converted by molar mass.

Test system: Plasmodium falciparum
Experiment: Antimicrobial activity against chloroquine-resistant Plasmodium falciparum Smith
Format: functional
Details: read-out: ED50 (the source's name)

Row | Structure (SMILES) | EC50 [µg/mL]
1 | CCCCCC/C=C/C(=O)O[C@H]1C(=O)O[C@@H]2C[C@H]3C(C)=C(O)C(=O)C[C@]3(C)[C@H]3[C@@H](O)[C@H](O)[C@@]4(C(=O)OC)OC[C@]32[C@@H]14 | 0.0617 (≈ 0.107 µM)
2 | COC(=O)[C@@]12OC[C@]34[C@H]([C@@H](O)[C@@H]1O)[C@@]1(C)CC(=O)C(O)=C(C)[C@@H]1C[C@H]3OC(=O)[C@H](O)[C@@H]24 [BRUCEOLIDE] | 0.0752 (≈ 0.172 µM)
3 | COC(=O)[C@@]12OC[C@]34[C@H]([C@@H](O)[C@@H]1O)[C@@]1(C)C=C(O[C@@H]5O[C@H](CO)[C@@H](O)[C@H](O)[C@H]5O)C(=O)[C@@H](C)[C@@H]1C[C@H]3OC(=O)[C@H](OC(=O)C=C(C)C)[C@@H]24 [BRUCEOSIDE A] | 0.581 (≈ 0.851 µM)
4 | COC(=O)[C@]12OC[C@]34[C@H]([C@@H](O)[C@@H]1O)[C@@]1(C)CC(=O)C(O)=C(C)[C@@H]1C[C@H]3OC(=O)[C@H](OC(=O)C=C(C)C)[C@@H]24 [BRUSATOL] | 0.00758 (≈ 0.0146 µM)
